# Reference: PubChem BioAssay (NCI)
#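 How tested: cells in 96-well plates exposed to compound for 48 hours at five concentrations. GI50: concentration for 50% inhibition of growth. Definition used: TGI = concentration required for complete inhibition of growth.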
# Legend:
# Assay in all cases: growth of human tumour cells (NCI), 48 h
# [1] = test system: 786-0 renal
# [2] = test system: COLO 205 colon
# [3] = test system: SK-MEL-5 melanoma
# [4] = test system: MCF7 breast
# [5] = test system: UACC-257 melanoma
# [6] = test system: MDA-MB-435
# [7] = test system: OVCAR-3 ovarian
# [8] = test system: HT29 colon
# [9] = test system: UACC-62 melanoma
# [10] = test system: HCT-15 colon
# [11] = test system: TK-10 renal
# [12] = test system: SNB-19 CNS
# [13] = test system: HS 578T breast
# [14] = test system: SW-620 colon
# [15] = test system: OVCAR-4 ovarian
# [16] = test system: EKVX NSCLC
# [17] = test system: K-562 leukemia
# [18] = test system: HOP-92 NSCLC
# [19] = test system: SNB-75 CNS
# [20] = test system: HOP-62 NSCLC
# [21] = test system: SF-295 CNS
# [22] = test system: ACHN renal
# [23] = test system: OVCAR-5 ovarian
# [24] = test system: NCI-H460 lung
# [25] = test system: HCC-2998 colon
# [26] = test system: NCI/ADR-RES ovarian
# [27] = test system: DU-145 prostate
# [28] = test system: SN12C renal
smiles,measurement,setting,value
COc1ccc2c(c1)C(=O)c1c-2c(NCCCN(C)C)nc2ccccc12,GI50,[1],4.24 µM
same,TGI,[1],18.7 µM
same,GI50,[2],5.23 µM
same,TGI,[2],18.8 µM
same,GI50,[3],3.87 µM
same,TGI,[3],14.4 µM
same,GI50,[4],1.54 µM
same,TGI,[4],4.05 µM
same,GI50,[5],11.8 µM
same,TGI,[5],25.4 µM
same,GI50,[6],4.05 µM
same,TGI,[6],15.4 µM
same,GI50,[7],15.3 µM
same,TGI,[7],31.7 µM
same,GI50,[8],1.02 µM
same,TGI,[8],2.82 µM
same,GI50,[9],2.09 µM
same,TGI,[9],4.41 µM
same,GI50,[10],1.42 µM
same,TGI,[10],3.2 µM
same,GI50,[11],4.33 µM
same,TGI,[11],18.3 µM
same,GI50,[12],7.44 µM
same,TGI,[12],21.2 µM
same,GI50,[13],3.7 µM
same,TGI,[13],16 µM
same,GI50,[14],1.45 µM
same,TGI,[14],2.99 µM
same,GI50,[15],0.898 µM
same,TGI,[15],16.4 µM
same,GI50,[16],5.54 µM
same,TGI,[16],23.1 µM
same,GI50,[17],3.69 µM
same,TGI,[17],14.7 µM
same,GI50,[18],1.15 µM
same,TGI,[18],8.6 µM
same,GI50,[19],0.997 µM
same,TGI,[19],11.8 µM
same,GI50,[20],5.93 µM
same,TGI,[20],19.9 µM
same,GI50,[21],5.13 µM
same,TGI,[21],18.9 µM
same,GI50,[22],1.11 µM
same,TGI,[22],2.31 µM
same,GI50,[23],10.2 µM
same,TGI,[23],21.9 µM
same,GI50,[24],1.33 µM
same,TGI,[24],2.76 µM
same,GI50,[25],2.48 µM
same,TGI,[25],11.7 µM
same,GI50,[26],4.03 µM
same,TGI,[26],19.4 µM
same,GI50,[27],6.67 µM
same,TGI,[27],19.5 µM
same,GI50,[28],2.26 µM
same,TGI,[28],6.84 µM
